Results reported in patent US20220207902A1, “SYSTEM AND METHOD FOR AUTOMATICALLY DISCOVERING, CHARACTERIZING, CLASSIFYING AND SEMI-AUTOMATICALLY LABELING ANIMAL BEHAVIOR AND QUANTITATIVE PHENOTYPING OF BEHAVIORS IN ANIMALS” (President and Fellows of Harvard College, priority 2012, published 2022).
“Also recorded” adds a separate entry of the source.

Assays:
mice [1] = test: conventional two-compartment behavioral choice assay (odor-soaked filter paper); assay type: in vivo; conditions: odors soaked into filter papers placed in the small compartment of a cage divided by a parafilm curtain; FIGS. 4A and 4B
Text: (§1) FIGS. 4A-4E depict assessment of odor-driven innate behaviors in two and three dimensions. FIGS. 4A and B depict a conventional two-compartment behavioral choice assay. FIG. 4C, left, depicts a new behavioral arena. FIG. 4C, right, depicts a chart generated through use of custom-written Matlab code to track animal trajectories.
(§2) FIGS. 4A-4E depict the assessment of odor-driven innate behaviors in two and three dimensions. […] Odors are soaked into filter papers, which are placed in the small compartment of a cage divided by a parafilm curtain. This assay suffers from incomplete control of gas-phase odorant concentration, poorly defined spatial odor gradients and experimental variability due to the physical interaction of the animal with the odor source. The present inventors have therefore developed a new behavioral arena (FIG. 4C, left), in which odors are delivered to each of 4 corners in gas phase via high-performance computer-controlled Teflon valves.

mice [2] = test: odor quadrant arena, odors delivered in gas phase to one of four corners, animal tracked by 2D tracking or depth camera; assay type: in vivo
Text: as §1, §2
Odors are delivered to one of four quadrants via computer-controlled olfactometers, which can deliver precisely timed pulses or square waves of odorants at defined concentrations. […]

SMILES	innate behavioral response to odor (attraction or avoidance) (mice [1])	posture (aspect ratio versus height) by depth camera (mice [2]; depth camera, compared with control conditions (stretched and low to the ground), FIG. 4E)	qualitative and quantitative avoidance behavior (mice [2]; odor delivered in gas phase in the upper right corner, FIG. 4D)
C=CCc1ccc(O)c(OC)c1 [eugenol]	robust innate behavioral attraction	–	–
CC1=NC(C)SC1C (stereo not shown) [TMT]	avoidance	become compressed (from the perspective of the overhead camera) and elevate their noses	avoidance behaviors that are extraordinarily robust and well controlled; also recorded: avoidance behavior
Cc1cnc(C)cn1 [2,5-DMP]	avoidance	–	–
CCCC(=O)O [butyric acid]	avoidance	–	–
CCCCCC(C)=O [2-heptanone]	avoidance	–	–
